Target: T1, Adrenergic receptor alpha-1 (Homo sapiens, UniProt P35348+P25100+P35368)
T1 sequence (P35348 whole entry): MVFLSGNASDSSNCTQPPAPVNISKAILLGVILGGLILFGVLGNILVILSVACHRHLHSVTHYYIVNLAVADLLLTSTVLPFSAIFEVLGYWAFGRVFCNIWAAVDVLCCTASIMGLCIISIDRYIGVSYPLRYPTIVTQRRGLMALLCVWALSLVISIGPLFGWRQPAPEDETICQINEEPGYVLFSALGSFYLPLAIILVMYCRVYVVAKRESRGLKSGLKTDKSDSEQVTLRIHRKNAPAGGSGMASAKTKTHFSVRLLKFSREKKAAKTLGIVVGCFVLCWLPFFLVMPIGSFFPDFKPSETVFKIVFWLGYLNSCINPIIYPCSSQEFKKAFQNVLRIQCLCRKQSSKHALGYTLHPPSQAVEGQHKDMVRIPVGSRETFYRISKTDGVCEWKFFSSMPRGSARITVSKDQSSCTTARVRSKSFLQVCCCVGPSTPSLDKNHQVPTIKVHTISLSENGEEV
T1 sequence (P25100 whole entry): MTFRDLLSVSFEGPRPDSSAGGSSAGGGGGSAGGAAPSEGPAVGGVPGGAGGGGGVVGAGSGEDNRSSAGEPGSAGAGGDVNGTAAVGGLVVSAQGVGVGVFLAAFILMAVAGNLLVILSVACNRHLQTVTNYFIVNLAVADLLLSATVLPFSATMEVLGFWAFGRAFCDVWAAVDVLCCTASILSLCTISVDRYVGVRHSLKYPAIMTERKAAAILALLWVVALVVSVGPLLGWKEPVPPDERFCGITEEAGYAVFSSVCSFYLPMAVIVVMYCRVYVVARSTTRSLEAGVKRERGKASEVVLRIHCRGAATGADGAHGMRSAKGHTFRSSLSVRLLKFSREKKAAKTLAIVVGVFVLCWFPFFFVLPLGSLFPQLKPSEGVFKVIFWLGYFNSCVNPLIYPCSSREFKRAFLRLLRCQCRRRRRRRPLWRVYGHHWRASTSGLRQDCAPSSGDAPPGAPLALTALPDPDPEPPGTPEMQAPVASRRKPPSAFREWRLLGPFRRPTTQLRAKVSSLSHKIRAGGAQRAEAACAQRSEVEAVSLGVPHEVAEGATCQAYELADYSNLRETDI
T1 sequence (P35368 whole entry): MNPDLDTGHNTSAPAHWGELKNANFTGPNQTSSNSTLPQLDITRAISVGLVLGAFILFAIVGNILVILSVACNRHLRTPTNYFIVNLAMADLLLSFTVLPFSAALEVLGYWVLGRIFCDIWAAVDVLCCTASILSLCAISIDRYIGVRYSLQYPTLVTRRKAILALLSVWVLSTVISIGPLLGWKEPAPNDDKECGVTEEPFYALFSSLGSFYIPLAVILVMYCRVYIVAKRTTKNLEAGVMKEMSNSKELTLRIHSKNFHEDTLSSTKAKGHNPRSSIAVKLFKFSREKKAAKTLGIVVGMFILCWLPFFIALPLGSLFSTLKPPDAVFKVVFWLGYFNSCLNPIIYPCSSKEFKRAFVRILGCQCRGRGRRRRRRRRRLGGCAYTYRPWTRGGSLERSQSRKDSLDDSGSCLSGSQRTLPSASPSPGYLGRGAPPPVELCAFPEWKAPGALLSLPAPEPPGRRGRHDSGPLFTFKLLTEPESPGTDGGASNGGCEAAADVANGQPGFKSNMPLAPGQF
Assay: Inhibition of alpha-1 adrenoceptor (unknown origin)

COCCCOc1cc(C(=O)N(C[C@@H]2CNC[C@H]2Cc2ccccc2)C(C)C)ccc1OC.Cl
IC50: > 1000 nM
